Source: ChEMBL document CHEMBL2216751, “PI3Kδ and PI3Kγ as targets for autoimmune and inflammatory diseases” (J Med Chem, 2012)

Columns and labels:
[1] = target: Phosphatidylinositol 4,5-bisphosphate 3-kinase catalytic subunit alpha isoform (Homo sapiens) (UniProt P42336); assay: Inhibition of PI3Kalpha at 1 uM
[2] = target: T1, Phosphatidylinositol 4,5-bisphosphate 3-kinase catalytic subunit delta isoform (Homo sapiens, UniProt O00329)
T1 sequence (O00329 whole entry): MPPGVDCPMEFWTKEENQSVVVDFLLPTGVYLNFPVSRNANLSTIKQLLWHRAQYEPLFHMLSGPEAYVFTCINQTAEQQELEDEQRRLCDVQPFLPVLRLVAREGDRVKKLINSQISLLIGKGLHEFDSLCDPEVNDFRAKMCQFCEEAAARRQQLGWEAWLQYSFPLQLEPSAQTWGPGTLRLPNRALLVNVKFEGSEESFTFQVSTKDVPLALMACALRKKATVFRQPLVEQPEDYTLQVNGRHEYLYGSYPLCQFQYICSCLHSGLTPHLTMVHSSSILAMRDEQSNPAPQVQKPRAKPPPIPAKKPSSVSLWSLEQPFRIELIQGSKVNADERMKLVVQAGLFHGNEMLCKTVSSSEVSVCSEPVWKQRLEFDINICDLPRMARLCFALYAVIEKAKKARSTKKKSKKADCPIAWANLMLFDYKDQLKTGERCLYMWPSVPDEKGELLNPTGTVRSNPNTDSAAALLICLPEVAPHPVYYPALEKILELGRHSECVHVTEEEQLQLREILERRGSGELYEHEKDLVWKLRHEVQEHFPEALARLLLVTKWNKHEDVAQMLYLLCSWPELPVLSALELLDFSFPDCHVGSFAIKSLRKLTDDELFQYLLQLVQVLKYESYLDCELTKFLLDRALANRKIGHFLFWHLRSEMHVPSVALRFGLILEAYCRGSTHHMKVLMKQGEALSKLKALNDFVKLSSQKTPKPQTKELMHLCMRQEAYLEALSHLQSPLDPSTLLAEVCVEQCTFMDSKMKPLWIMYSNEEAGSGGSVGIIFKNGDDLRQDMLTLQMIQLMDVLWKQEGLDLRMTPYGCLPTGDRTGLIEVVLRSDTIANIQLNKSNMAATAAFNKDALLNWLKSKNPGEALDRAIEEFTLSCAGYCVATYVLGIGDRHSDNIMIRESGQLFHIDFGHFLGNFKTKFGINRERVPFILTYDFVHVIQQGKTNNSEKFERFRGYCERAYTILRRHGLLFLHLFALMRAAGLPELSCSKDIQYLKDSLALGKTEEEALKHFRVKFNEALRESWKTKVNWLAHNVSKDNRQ

[3] = target: T2, Phosphatidylinositol 4,5-bisphosphate 3-kinase catalytic subunit gamma isoform (Homo sapiens, UniProt P48736); assay: Inhibition of PI3Kgamma at 1 uM
Target sequence in this assay (P48736 whole entry, looked up, canonical isoform): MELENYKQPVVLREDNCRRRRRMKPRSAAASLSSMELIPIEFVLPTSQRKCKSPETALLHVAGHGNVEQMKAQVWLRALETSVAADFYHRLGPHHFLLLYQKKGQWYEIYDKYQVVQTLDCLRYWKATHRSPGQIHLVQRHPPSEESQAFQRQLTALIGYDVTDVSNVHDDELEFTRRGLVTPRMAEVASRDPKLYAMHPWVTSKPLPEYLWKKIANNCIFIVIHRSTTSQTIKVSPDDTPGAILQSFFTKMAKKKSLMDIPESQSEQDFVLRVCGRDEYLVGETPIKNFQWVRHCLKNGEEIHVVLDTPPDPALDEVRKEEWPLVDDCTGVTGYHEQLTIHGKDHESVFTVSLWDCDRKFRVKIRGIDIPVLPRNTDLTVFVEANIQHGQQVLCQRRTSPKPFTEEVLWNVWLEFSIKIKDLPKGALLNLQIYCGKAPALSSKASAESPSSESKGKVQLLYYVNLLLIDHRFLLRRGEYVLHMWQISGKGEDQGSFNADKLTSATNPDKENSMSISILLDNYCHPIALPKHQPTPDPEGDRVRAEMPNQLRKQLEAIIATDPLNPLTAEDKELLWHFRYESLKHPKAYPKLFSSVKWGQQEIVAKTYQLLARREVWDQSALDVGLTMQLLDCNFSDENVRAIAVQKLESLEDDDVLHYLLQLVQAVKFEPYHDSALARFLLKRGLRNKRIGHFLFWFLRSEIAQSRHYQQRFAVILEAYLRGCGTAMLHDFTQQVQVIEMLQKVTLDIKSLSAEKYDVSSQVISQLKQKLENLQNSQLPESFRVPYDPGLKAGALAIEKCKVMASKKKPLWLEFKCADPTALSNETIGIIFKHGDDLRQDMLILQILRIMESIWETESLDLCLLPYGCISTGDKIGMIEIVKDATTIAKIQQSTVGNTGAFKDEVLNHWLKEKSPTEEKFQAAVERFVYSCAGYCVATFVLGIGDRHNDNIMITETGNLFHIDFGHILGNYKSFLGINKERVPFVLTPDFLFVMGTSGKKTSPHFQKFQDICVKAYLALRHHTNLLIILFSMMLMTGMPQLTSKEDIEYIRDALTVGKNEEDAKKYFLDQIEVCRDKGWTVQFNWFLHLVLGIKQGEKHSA

[4] = target: Phosphatidylinositol 4,5-bisphosphate 3-kinase catalytic subunit beta isoform (Homo sapiens) (UniProt P42338); assay: Inhibition of PI3Kbeta at 1 uM
Sequence of Phosphatidylinositol 4,5-bisphosphate 3-kinase catalytic subunit beta isoform (Homo sapiens) (P42338 whole entry, looked up, canonical isoform): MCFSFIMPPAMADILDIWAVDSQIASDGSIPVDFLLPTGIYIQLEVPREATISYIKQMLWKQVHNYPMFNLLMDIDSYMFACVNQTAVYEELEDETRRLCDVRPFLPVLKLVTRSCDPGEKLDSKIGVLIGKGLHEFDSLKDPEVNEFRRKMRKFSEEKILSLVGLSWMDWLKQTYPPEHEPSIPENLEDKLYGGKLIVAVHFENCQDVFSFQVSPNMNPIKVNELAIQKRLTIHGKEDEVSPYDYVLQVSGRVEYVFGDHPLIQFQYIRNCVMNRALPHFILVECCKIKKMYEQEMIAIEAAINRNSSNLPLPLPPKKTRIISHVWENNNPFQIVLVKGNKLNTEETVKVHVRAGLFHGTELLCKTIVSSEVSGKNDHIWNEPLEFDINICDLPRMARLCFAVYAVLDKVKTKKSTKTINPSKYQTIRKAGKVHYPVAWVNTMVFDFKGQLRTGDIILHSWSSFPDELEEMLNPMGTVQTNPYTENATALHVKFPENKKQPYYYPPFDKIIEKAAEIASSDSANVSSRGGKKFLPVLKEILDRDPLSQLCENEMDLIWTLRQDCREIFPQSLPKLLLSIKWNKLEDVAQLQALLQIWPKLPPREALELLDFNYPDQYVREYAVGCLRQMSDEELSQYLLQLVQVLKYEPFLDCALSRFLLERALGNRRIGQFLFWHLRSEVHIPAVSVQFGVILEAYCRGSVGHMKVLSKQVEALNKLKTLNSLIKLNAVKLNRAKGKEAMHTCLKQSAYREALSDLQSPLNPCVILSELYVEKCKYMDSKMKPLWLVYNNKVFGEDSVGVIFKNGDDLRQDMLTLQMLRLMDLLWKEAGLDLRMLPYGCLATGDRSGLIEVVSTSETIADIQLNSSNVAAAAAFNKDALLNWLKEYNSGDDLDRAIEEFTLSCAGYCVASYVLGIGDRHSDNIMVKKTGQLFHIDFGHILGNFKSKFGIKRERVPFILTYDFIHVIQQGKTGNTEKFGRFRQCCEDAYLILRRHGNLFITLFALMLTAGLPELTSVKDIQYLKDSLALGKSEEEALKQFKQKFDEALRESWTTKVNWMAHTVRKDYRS

[5] = tested on: Mus musculus; assay: Antiinflammatory activity in LPS-induced COPD BALB/c mouse model assessed as reduction in pulmonary neutrophilia at 0.3 mg/kg, ip qd; format: functional; parameters: scale not given: the % may be the effect or the level left; settings: route intraperitoneal
[6] = target: T2, Phosphatidylinositol 4,5-bisphosphate 3-kinase catalytic subunit gamma isoform; assay: Inhibition of PI3Kgamma-mediated Akt phosphorylation in T cells by flow cytometry; format: cell-based, T-cell
Target sequence in this assay (P48736 whole entry, canonical isoform): as the sequence (P48736 whole entry, looked up, canonical isoform) above

[7] = organism: Homo sapiens; assay: Toxicity in healthy human; format: organism-based; settings: in vivo
[8] = organism: Homo sapiens; assay: Antitumor activity in Non-Hodgkin Lymphoma patient assessed as clinical response rate at 50 to 350 mg, bid; format: functional
[9] = tested on: Homo sapiens; assay: Toxicity in healthy human administered bid up to 7 days; format: organism-based; settings: in vivo, 168 h
[10] = target: Serine/threonine-protein kinase mTOR (Homo sapiens) (UniProt P42345); assay: Inhibition of mTOR
[11] = target: T1, Phosphatidylinositol 4,5-bisphosphate 3-kinase catalytic subunit delta isoform; assay: Inhibition of PI3Kdelta in human whole blood assessed as inhibition of CD69 production in B lymphocyte by immunoassay
[12] = target: T1, Phosphatidylinositol 4,5-bisphosphate 3-kinase catalytic subunit delta isoform; assay: Inhibition of PI3Kdelta-mediated AKT phosphorylation in human Ramos cells by ELISA; format: cell-based
[13] = Oral bioavailability in Han-Wistar rat; format: ADME, organism-based; settings: in vivo
[14] = target: T1, Phosphatidylinositol 4,5-bisphosphate 3-kinase catalytic subunit delta isoform; assay: Inhibition of PI3Kdelta in neutrophil assessed as inhibition of superoxide production by cell-based assay
[15] = Clearance in Han-Wistar rat; format: ADME, organism-based; settings: in vivo
[16] = target: T1, Phosphatidylinositol 4,5-bisphosphate 3-kinase catalytic subunit delta isoform; assay: Inhibition of PI3Kdelta in human PBMC
[17] = target: T1, Phosphatidylinositol 4,5-bisphosphate 3-kinase catalytic subunit delta isoform; assay: Inhibition of PI3Kdelta by cell-based assay
[18] = target: T3, Phosphatidylinositol 4,5-bisphosphate 3-kinase catalytic subunit delta isoform (Homo sapiens) (UniProt O00329); assay: Inhibition of PI3Kdelta-mediated Akt phosphorylation at 10 uM by cell-based assay
T3 sequence (whole entry): T1 sequence (O00329 whole entry)

Sequence of Phosphatidylinositol 4,5-bisphosphate 3-kinase catalytic subunit alpha isoform (Homo sapiens) (P42336 whole entry, canonical isoform): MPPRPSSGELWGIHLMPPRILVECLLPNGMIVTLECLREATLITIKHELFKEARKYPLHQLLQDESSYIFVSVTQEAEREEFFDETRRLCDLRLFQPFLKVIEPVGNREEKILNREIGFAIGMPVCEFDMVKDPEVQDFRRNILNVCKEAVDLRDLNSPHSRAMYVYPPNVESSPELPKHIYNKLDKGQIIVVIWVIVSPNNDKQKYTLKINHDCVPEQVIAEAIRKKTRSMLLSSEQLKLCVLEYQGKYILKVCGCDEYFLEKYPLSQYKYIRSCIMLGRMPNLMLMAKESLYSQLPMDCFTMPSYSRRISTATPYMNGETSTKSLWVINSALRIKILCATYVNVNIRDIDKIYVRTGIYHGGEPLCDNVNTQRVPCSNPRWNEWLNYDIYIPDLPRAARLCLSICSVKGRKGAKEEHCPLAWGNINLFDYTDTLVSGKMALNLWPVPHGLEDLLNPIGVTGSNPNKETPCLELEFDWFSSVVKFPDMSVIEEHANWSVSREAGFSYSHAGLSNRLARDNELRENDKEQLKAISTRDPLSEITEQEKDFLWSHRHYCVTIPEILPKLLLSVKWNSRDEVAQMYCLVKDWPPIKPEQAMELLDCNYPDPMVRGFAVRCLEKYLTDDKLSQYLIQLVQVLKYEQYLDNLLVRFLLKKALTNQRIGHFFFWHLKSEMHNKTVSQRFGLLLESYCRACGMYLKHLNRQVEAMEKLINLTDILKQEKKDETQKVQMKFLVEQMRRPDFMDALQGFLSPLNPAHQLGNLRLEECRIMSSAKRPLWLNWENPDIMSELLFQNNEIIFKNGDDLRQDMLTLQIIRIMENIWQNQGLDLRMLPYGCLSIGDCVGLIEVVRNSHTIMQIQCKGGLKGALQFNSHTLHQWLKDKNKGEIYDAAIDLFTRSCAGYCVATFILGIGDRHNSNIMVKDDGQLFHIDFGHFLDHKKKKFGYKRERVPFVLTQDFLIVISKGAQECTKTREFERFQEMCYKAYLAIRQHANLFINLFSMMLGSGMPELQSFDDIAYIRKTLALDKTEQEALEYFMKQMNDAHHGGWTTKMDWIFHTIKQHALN

## CC(c1oc2ccccc2c(=O)c1-c1cccc(F)c1)n1cnc2c(N)ncnc21 (centres undefined)
[1]
  inhibition: < 25%
[2]; read-out: IC50
  IC50: < 250 nM
[3]
  inhibition: < 25%
[4]
  inhibition: < 25%

## CC(=O)NCCNS(=O)(=O)c1ccc(-c2sc(NC(C)=O)nc2C)o1
[2]
  Ki: 100 nM

## O=C(CN1CCOCC1)Nc1cc(-c2cc(F)cc3[nH]ccc23)cc2[nH]ncc12
[2]
  pIC50: >= 5

## Cc1c(-c2ccccn2)nc2cc(F)cc(F)c2c1Nc1cc(N2CCOCC2)cnc1-c1ccc(O)cc1
[2]
  Ki: 2.85 nM

## CCN(CC)C(=O)c1cccc(Nc2nc3ccc(-c4cncc(OC)c4)cc3s2)n1
[2]
  Ki: 3 nM

## Nc1ncc(-c2ccc(Cl)c(S(=O)(=O)Nc3ccccc3)c2)nc1C(=O)c1cccnc1
[2]; read-out: IC50
  IC50: 12 nM

## C[C@@H]1C[C@H]2[C@@H]3CCC4=CC(=O)C=C[C@]4(C)[C@@]3(F)[C@@H](O)C[C@]2(C)[C@@]1(O)C(=O)CO [DEXAMETHASONE]
[5]
  Activity: 70%

## CN1CCOC(C(=O)Nc2cc(-c3cccc4[nH]ccc34)cc3[nH]ncc23)C1 (centres undefined)
[2]
  pIC50: >= 5
[6]
  IC50: ≤ 1000 nM

## CC[C@H](Nc1ncnc2[nH]cnc12)c1nc2cccc(F)c2c(=O)n1-c1ccccc1 [IDELALISIB]
[7]
  MTD: 400 mg
[8]
  Activity: 56%
[9]
  MTD: 200 mg

## c1ccc2c(N3CCOCC3)nc(-c3cccc4[nH]ccc34)cc2c1
[2]; read-out: IC50
  IC50: 260 nM

## CNc1nc(C)c2cc(-c3cc(O)cc(F)c3)ccc2n1
[2]; read-out: IC50
  IC50: < 100 nM

## COc1ccc(-c2nn(C)c3nc(N)nc(NCc4ccccc4)c23)cc1F
[2]; read-out: IC50
  IC50: < 2000 nM

## CC(=O)Nc1nc2ccc(-c3nn(C4CCCC4)c4ncnc(N)c34)cc2s1
[10]
  INH: < 0.05 µM
[2]; read-out: IC50
  IC50: < 50 nM

## Cc1nc(NC(=O)NCCC(=O)OC(C)(C)C)sc1-c1ccc(S(C)(=O)=O)c(F)c1
[2]; read-out: IC50
  IC50: 16 nM

## OCCn1cnc2c(-n3c(C(F)F)nc4ccccc43)nc(N3CCOCC3)nc21
[2]; read-out: IC50
  IC50: < 30 nM

## C[C@@H]1CN(Cc2nnc(-c3cc(-c4cccc5[nH]ccc45)cc4[nH]ncc34)o2)C[C@H](C)O1
[2]
  pIC50: >= 5

## CN(C)C1CCN(Cc2cc3nc(-c4cccc5[nH]ccc45)nc(N4CCOCC4)c3s2)CC1
[11]
  IC50: 17 nM
[2]
  Ki: 4.9 nM

## Cn1c(C(=O)NCC(F)(F)F)nc2c(N3CCC(n4c(=O)[nH]c5ncccc54)CC3)ncnc21
[2]; read-out: IC50
  IC50: < 50 nM

## CC(=O)Nc1ccc(C(=O)NC2=Nc3cc(N4CCOCC4)ccc3C3=NCCN23)cn1
[2]; read-out: IC50
  IC50: < 100 nM

## Clc1ccc(-c2nc(N3CCOCC3)sc2-c2nnc[nH]2)c(Cl)c1
[2]; read-out: IC50
  IC50: < 100 nM

## COc1ccc(-c2cc(-c3ncc(CN4C[C@@H](C)O[C@@H](C)C4)o3)c3cn[nH]c3c2)cc1NS(C)(=O)=O
[2]; read-out: pIC50 (converted)
  IC50: < 100 nM

## Cc1oc2ncn(CC(C)C)c(=O)c2c1C(=O)NCc1ccccc1
[2]; read-out: IC50
  IC50: 2100 nM

## C[C@H](Nc1ncnc(N)c1C#N)c1nc2ccc(F)cc2c(NCCS(C)(=O)=O)c1-c1ccccc1
[2]
  Ki: 2.26 nM

## C[C@H](Nc1ncnc2[nH]cnc12)c1nc2ccsc2c(=O)n1-c1ccccc1
[2]; read-out: IC50
  IC50: 6 nM

## CC(C)N1CCN(Cc2cnc(-c3cc(-c4cccc5[nH]ccc45)cc4[nH]ncc34)o2)CC1 [NEMIRALISIB]
[2]; read-out: pIC50 (converted)
  IC50: < 100 nM

## CC(=O)Nc1nc(C)c(-c2ccc(Cl)c(S(=O)(=O)N[C@@H](C)C(=O)OC3CCCC3)c2)s1
[2]; read-out: IC50
  IC50: < 100 nM

## COc1cc2c(CC3CCCC(C)C3)c(C(=O)Nc3nn[nH]n3)sc2cc1C (centres undefined)
[2]; read-out: IC50
  IC50: 3 nM

## CCNC(=O)Nc1nc2ccc(-c3cncc(C(F)(F)F)c3)cc2s1
[2]
  Ki: 10 nM

## CC(Nc1ncnc2[nH]cnc12)c1cc(Cl)c2cncn2c1-c1cccc(F)c1 (centres undefined)
[12]
  IC50: < 100 nM
[2]; read-out: IC50
  IC50: < 100 nM

## CC(=O)Nc1nc2c(s1)-c1c(c(C3CC3)nn1C1CCC(C(=O)N[C@H]3CC[C@H](N4CCCC4)CC3)CC1)CC2 (some centres undefined)
[2]; read-out: IC50
  IC50: < 600 nM

## CC[C@H]1CN(c2sc(-c3nnc[nH]3)c(-c3ccc(Cl)cc3Cl)c2C#N)CCO1
[2]; read-out: IC50
  IC50: < 100 nM

## Cc1cccc2cc(C(C)Nc3ncnc4[nH]cnc34)nc(OC3CCN(C)CC3)c12 (centres undefined)
[2]; read-out: IC50
  IC50: < 100 nM

## O=C(Nc1cc(-c2cnc3[nH]ncc3c2)cc2[nH]ncc12)c1cccc(CN2CCS(=O)(=O)CC2)n1
[2]
  pIC50: >= 5
[6]
  IC50: ≤ 10000 nM

## CS(=O)(=O)N1CCN(Cc2cc3nc(-c4c(F)ccc5[nH]ccc45)nc(N4CCOCC4)c3s2)CC1
[2]; read-out: IC50
  IC50: < 100 nM

## CN(C)CCCOc1cccc2c1nc(C(F)F)n2-c1nc(OC2CCN(C(=O)CCl)CC2)nc(N2CCOCC2)n1
[2]; read-out: IC50
  IC50: > 100 nM

## O=C(NCC(=O)N1CCCC1)Nc1nc2ccc(-c3cncc(C(F)(F)F)c3)cn2n1
[2]; read-out: IC50
  IC50: < 100 nM

## Cc1nc2ccccc2n1-c1nc(N2CCOCC2)c2oc(CN3CCN(C(C)(C)C(N)=O)CC3)cc2n1
[11]
  IC50: 17.8 nM

## COc1ccc(-c2ccc3c(n2)N(C2=NC(=O)C(C)(C)S2)CCO3)cc1OC
[2]; read-out: IC50
  IC50: 27 nM

## Cn1cc(-c2ccc3c(c2)N(C2=NC4CC(C)(C)NC(=O)C4S2)CCO3)cn1 (centres undefined)
[13]
  bioavailability: 97%
[14]
  IC50: 111 nM
[15]
  clearance: 7 mL/min/kg

## CC(C)c1nc2ccccc2n1-c1nc(N2CCOCC2)c2nc(OC3CN(C4CCS(=O)(=O)CC4)C3)n(C)c2n1
[11]
  IC50: 3 nM

## COc1ccccc1S(=O)(=O)Nc1cc(-c2cc(NC(=O)c3csc(CN4C[C@@H](C)O[C@@H](C)C4)n3)c3cn[nH]c3c2)cnc1OC
[16]
  IC50: ≤ 10 µM
[2]
  pIC50: >= 5

## Cc1ccccc1-n1c(Cn2nc(-c3cc(O)cc(F)c3)c3c(N)ncnc32)nc2scc(C)c2c1=O
[17]
  IC50: < 100 nM
[2]; read-out: IC50
  IC50: < 100 nM

## C[C@@H](c1nc2ccsc2c(=O)n1-c1ccccc1)n1cnc2c(N)ncnc21
[2]; read-out: IC50
  IC50: 40 nM

## Cc1cccc2cc(Cn3cnc4c(N)ncnc43)c(N(C)CC3CCCN3C)nc12 (centres undefined)
[2]; read-out: IC50
  IC50: < 50 nM

## Cc1ccc(-c2ccc3c(c2)N(C2=NC4CC(C)(C)NC(=O)C4S2)CCO3)nn1 (centres undefined)
[13]
  bioavailability: 66%

## Cc1nc(C(=O)Nc2cc(-c3ccnc4[nH]ccc34)cc3[nH]ncc23)cs1
[2]
  pIC50: >= 5
[6]
  IC50: ≤ 1000 nM

## CC(Nc1ncnc2[nH]cnc12)c1c(C#N)c2ccc(Cl)cc2n1-c1cccc(F)c1 (centres undefined)
[2]; read-out: IC50
  IC50: < 50 nM

## COc1ccc(NC(=O)c2c(C)oc3ncn(CC(C)C)c(=O)c23)cc1
[2]; read-out: IC50
  IC50: 5.9 nM

## Cc1nc(C(=O)Nc2cc(-c3cnc4[nH]nc(S(C)(=O)=O)c4c3)cc3[nH]ncc23)cs1
[2]
  pIC50: >= 5

## Cc1cccn2c(C(C)Nc3ncnc4[nH]cnc34)c(-c3cc(F)cc(F)c3)nc12 (centres undefined)
[12]
  IC50: < 500 nM
[2]; read-out: IC50
  IC50: < 200 nM

## CC(C)(Oc1cccc2[nH]c(-c3nccc(-c4cncc(S(N)(=O)=O)c4)n3)cc12)C(=O)O
[18]
  inhibition: > 95%

## CC(=O)Nc1nc(C)c(-c2csc(C(=O)Nc3nnn[nH]3)n2)s1
[2]; read-out: IC50
  IC50: 13 nM

## CCOC(=O)CCNC(=O)Nc1nc2c(s1)CN(c1cnc(Cl)c(OC)c1)CC2
[2]
  Ki: 3 nM
